Drawing on patent EP4692090A1 (Shanghai Fosun Pharmaceutical (Group) Co., Ltd., priority 2023, dated 2024), this text covers IC50 for 23 compounds.

Experiment [1] has as its target T1, ATR kinase (Homo sapiens, UniProt Q13535).
T1 construct: purchased Eurofins 14-953
In words: Inhibitory effect on ATR kinase activity (Caliper mobility shift, FAM-labeled RAD17 peptide substrate). The class given is biochemical. Put shortly: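 Caliper mobility-shift assay with 1 nM ATR, FAM-labeled RAD17 peptide […] and 5 mM ATP in HEPES pH 7.5 with 10 mM MnCl2, run 3 h at 28 °C and stopped with EDTA. Compounds were tested in 10-point 3-fold dilutions from 1 µM. IC50 was fitted from % inhibition of substrate conversion versus blank control.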

Experiment [2] has as its system LoVo cells. As to the kind of experiment: LoVo cell proliferation assay (CellTiter-Glo). The settings on record: Homo sapiens, LoVo, 120 h, maximum concentration 10 µM, 9 concentrations. The class given is cell-based. Put shortly:
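LoVo cells, 2,000 per well, were treated after overnight attachment with 9-point 3-fold dilutions from 10 µM for 5 days at 37 °C. Viability was read by CellTiter-Glo luminescence. Inhibition % was taken relative to DMSO control, and IC50 came from the concentration–inhibition curve.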

[3] abbreviates: read-out: ATR kinase IC50, 1 nM ATR kinase (Eurofins), 28°C for 3 hours, maximum concentration 1 µM, 10 concentrations.
The mark [4] stands for this setting: read-out: LoVo IC50 (nM), LoVo cells, 2,000 cells per well, 5 days incubation, CellTiter-Glo.
The mark [5] stands for this setting: 1 nM ATR kinase (Eurofins), 28°C for 3 hours, maximum concentration 1 µM, 10 concentrations, read-out: ATR kinase IC50.
Setting [6] is: LoVo cells, 2,000 cells per well, 5 days incubation, CellTiter-Glo, read-out: LoVo IC50.

Each structure is given as a SMILES string. Like-named read-outs stand apart in the source and are kept apart here. Bounds are passed on as bounds.

T1 sequence (Q13535 whole entry): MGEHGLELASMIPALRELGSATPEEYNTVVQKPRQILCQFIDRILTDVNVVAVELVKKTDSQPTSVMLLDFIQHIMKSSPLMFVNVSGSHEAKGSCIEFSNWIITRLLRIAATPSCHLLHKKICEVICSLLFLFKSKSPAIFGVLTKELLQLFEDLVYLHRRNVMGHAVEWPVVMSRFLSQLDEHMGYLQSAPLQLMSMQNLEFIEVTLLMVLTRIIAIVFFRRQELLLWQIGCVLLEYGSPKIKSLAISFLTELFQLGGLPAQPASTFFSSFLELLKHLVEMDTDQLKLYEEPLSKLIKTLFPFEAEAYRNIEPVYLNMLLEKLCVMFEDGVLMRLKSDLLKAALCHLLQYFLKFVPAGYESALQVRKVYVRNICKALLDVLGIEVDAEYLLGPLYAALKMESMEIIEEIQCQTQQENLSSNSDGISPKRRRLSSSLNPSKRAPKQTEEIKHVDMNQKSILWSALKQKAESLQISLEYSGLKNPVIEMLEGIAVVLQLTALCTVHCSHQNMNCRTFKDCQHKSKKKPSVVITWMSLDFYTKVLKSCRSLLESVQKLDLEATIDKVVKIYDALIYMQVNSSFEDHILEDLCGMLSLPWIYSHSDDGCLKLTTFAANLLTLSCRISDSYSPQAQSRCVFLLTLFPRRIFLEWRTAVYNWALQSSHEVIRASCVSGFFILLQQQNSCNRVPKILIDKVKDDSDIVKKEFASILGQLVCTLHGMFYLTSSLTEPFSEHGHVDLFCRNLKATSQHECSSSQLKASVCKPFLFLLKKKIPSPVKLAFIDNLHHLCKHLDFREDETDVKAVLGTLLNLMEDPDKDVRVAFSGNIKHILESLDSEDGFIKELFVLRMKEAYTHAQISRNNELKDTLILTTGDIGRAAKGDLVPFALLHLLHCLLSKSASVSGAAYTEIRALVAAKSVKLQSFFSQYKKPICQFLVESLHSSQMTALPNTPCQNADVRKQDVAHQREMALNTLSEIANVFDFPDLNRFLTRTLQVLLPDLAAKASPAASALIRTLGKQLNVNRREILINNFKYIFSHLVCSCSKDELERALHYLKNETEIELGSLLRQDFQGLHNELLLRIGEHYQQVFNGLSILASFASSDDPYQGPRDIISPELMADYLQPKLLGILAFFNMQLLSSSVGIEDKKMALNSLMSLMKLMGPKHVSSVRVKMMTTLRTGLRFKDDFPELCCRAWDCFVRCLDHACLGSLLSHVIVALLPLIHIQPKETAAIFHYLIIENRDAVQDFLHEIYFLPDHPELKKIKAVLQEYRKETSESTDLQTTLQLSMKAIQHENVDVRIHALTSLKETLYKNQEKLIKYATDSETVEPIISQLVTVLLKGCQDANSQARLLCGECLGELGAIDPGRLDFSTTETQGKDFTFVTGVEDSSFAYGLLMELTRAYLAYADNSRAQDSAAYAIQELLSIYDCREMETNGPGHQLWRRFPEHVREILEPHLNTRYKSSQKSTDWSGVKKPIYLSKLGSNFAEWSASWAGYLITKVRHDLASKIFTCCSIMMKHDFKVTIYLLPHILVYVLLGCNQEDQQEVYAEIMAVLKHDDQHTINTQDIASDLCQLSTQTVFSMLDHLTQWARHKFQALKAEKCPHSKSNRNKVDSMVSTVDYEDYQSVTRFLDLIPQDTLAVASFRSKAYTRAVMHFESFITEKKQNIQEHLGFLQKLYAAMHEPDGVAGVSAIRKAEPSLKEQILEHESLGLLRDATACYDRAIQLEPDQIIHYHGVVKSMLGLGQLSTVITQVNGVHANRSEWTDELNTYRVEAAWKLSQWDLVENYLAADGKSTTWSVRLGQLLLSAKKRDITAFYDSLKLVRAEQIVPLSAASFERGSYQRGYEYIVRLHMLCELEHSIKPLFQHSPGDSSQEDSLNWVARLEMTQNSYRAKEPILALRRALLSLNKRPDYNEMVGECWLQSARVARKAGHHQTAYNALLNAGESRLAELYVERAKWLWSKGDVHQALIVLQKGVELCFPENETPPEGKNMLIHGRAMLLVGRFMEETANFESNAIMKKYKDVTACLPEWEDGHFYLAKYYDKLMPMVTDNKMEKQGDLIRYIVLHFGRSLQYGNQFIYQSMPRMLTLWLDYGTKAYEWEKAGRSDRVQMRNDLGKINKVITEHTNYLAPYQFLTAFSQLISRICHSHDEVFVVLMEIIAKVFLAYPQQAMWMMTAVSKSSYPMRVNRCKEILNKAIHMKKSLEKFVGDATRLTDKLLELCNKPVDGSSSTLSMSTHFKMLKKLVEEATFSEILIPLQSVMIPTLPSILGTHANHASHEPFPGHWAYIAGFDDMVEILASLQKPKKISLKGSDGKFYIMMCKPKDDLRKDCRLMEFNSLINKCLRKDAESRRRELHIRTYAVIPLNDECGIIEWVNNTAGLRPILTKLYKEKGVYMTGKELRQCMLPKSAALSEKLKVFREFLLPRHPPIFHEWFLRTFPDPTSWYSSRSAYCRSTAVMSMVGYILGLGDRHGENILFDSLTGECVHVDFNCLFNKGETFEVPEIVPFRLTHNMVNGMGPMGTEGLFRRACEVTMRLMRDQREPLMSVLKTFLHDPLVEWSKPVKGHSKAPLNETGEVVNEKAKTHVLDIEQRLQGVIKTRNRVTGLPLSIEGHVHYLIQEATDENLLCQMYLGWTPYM
T1 sequence (Q8WXE1 whole entry partner): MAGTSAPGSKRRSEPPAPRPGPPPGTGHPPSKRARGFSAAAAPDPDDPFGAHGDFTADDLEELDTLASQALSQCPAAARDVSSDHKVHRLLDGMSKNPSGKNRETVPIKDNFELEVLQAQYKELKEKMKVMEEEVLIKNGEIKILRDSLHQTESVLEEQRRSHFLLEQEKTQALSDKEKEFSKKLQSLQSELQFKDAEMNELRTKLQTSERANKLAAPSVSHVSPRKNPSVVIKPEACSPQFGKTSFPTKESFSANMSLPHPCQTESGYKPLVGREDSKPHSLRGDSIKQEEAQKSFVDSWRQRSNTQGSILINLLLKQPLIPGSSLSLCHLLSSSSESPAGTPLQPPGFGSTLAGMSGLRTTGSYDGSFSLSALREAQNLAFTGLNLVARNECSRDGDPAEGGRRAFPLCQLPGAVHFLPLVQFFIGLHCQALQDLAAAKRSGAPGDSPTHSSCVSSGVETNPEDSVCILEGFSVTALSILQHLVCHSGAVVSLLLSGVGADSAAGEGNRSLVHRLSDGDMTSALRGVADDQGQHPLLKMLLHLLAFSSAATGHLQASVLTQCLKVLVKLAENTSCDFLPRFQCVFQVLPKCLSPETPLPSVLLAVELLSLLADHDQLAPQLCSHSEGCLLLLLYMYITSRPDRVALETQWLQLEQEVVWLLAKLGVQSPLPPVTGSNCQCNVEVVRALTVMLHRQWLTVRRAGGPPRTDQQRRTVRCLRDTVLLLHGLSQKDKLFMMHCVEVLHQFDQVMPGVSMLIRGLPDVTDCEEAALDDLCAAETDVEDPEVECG

For `CC(C1CC1)N1C(=O)CCn2nc(-c3cc[nH]n3)c3nc(N4CCOC[C@H]4C)cc1c32` (stereo partly drawn) [Compound 100, 6-(1-cyclopropylethyl)-4-((R)-3-methylmorpholinyl)-2-(1H-pyrazol-3-yl)-8,9-dihydro-1,3,6,9a-tetraazabenzo[cd]azulene-7(6H)-one], the values for the IC50 in experiment [1] (setting [3]) and in experiment [2] (setting [4]) were 10 to 100 nM and 100 to 1000 nM, respectively.

In the case of `C[C@@H]1COCCN1c1cc2c3c(n1)c(-c1cc[nH]n1)nn3CCC(=O)N2C1(C)COC1` [Compound 101, (R)-4-(3-methylmorpholinyl)-6-(3-methyloxetan-3-yl)-2-(1H-pyrazol-3-yl)-8,9-dihydro-1,3,6,9a-tetraazabenzo[cd]azulene-7(6H)-one], the IC50 in experiment [1] (setting [3]) is 10 to 100 nM; in experiment [2] (setting [4]) it was 100 to 1000 nM.

In the case of `C[C@@H]1COCCN1c1cc2c3c(n1)c(-c1cc[nH]n1)nn3CCC(=O)N2C1(C(F)F)CC1` [Compound 102, (R)-6-(1-(difluoromethyl)cyclopropyl)-4-(3-methylmorpholinyl)-2-(1H-pyrazol-3-yl)-8,9-dihydro-1,3,6,9a-tetraazabenzo[cd]azulene-7(6H)-one], the IC50 in experiment [1] (setting [3]) was under 10 nM; in experiment [2] (setting [4]) it was under 100 nM.

For the compound `C[C@@H]1COCCN1c1cc2c3c(n1)c(-c1cc[nH]n1)nn3CCC(=O)N2CC#CC(C)(C)O` [Compound 103, (R)-6-(4-hydroxy-4-methylpent-2-yn-1-yl)-4-(3-methylmorpholinyl)-2-(1H-pyrazol-3-yl)-8,9-dihydro-1,3,6,9a-tetraazabenzo[cd]azulene-7(6H)-one], the IC50 lay in the range of 10 to 100 nM in experiment [1] (setting [3]) and 100 to 1000 nM in experiment [2] (setting [4]).

With `C[C@@H]1COCCN1c1cc2c3c(n1)c(-c1cc[nH]n1)nn3CCC(=O)N2C1(C#N)CC1` [Compound 105, (R)-1-(4-(3-methylmorpholinyl)-7-oxo-2-(1H-pyrazol-3-yl)-8,9-dihydro-1,3,6,9a-tetraazabenzo[cd]azulene-6(7H)-yl)cyclopropane-1-carbonitrile], the values for the IC50 in experiment [1] (setting [3]) and in experiment [2] (setting [4]) were under 10 nM and under 100 nM, respectively.

Regarding `C=CC(C)N1C(=O)CCn2nc(-c3cc[nH]n3)c3nc(N4CCOC[C@H]4C)cc1c32` (stereo partly drawn) [Compound 106, 6-(but-3-en-2-yl)-4-((R)-3-methylmorpholinyl)-2-(1H-pyrazol-3-yl)-8,9-dihydro-1,3,6,9a-tetraazabenzo[cd]azulene-7(6H)-one], the IC50 in experiment [1] (setting [3]) is under 10 nM; in experiment [2] (setting [4]), under 100 nM.

With `COCC12CC(N3C(=O)CCn4nc(-c5cc[nH]n5)c5nc(N6CCOC[C@H]6C)cc3c54)(C1)C2` [Compound 107, (R)-6-(3-(methoxymethyl)bicyclo[1.1.1]pentan-1-yl)-4-(3-methylmorpholinyl)-2-(1H-pyrazol-3-yl)-8,9-dihydro-1,3,6,9a-tetraazabenzo[cd]azulene-7(6H)-one], the IC50 in experiment [1] (setting [3]) is under 10 nM; in experiment [2] (setting [4]), 100 to 1000 nM.

Consider `C[C@@H]1COCCN1c1cc2c3c(n1)c(-c1cc[nH]n1)nn3CCC(=O)N2C1(C2CC2)CC1` [Compound 108, (R)-6-([1,1'-bis(cyclopropane)]-1-yl)-4-(3-methylmorpholinyl)-2-(1H-pyrazol-3-yl)-8,9-dihydro-1,3,6,9a-tetraazabenzo[cd]azulene-7(6H)-one], for which the IC50 is under 10 nM in experiment [1] (ATR kinase IC50 (nM), 1 nM ATR kinase (Eurofins), 28°C for 3 hours, maximum concentration 1 µM, 10 concentrations) and 100 to 1000 nM in experiment [2] (setting [4]).

For the compound `C[C@@H]1COCCN1c1cc2c3c(n1)c(-c1cc[nH]n1)nn3CCC(=O)N2C1CC(F)(F)C1` [Compound 109, (R)-6-(3,3-difluorocyclobutyl)-4-(3-methylmorpholinyl)-2-(1H-pyrazol-3-yl)-8,9-dihydro-1,3,6,9a-tetraazabenzo[cd]azulene-7(6H)-one], the IC50 is 10 to 100 nM in experiment [1] (setting [3]) and 100 to 1000 nM in experiment [2] (setting [4]).

With `C[C@@H]1COCCN1c1cc2c3c(n1)c(-c1cc[nH]n1)nn3CCC(=O)N2C12CC(C1)C2` [Compound 110, (R)-6-(bicyclo[1.1.1]pentan-1-yl)-4-(3-methylmorpholinyl)-2-(1H-pyrazol-3-yl)-8,9-dihydro-1,3,6,9a-tetraazabenzo[cd]azulene-7(6H)-one], the results for the IC50 in experiment [1] (setting [3]) and in experiment [2] (setting [4]) were under 10 nM and under 100 nM, respectively.

Take `C[C@@H]1COCCN1c1cc2c3c(n1)c(-c1cc[nH]n1)nn3CCC(=O)N2C1(CF)CC1` [Compound 112, (R)-6-(1-(fluoromethyl)cyclopropyl)-4-(3-methylmorpholinyl)-2-(1H-pyrazol-3-yl)-8,9-dihydro-1,3,6,9a-tetraazabenzo[cd]azulene-7(6H)-one]: the IC50 in experiment [1] (setting [3]) was under 10 nM; in experiment [2] (setting [4]), under 100 nM.

On to `COCC1(N2C(=O)CCn3nc(-c4cc[nH]n4)c4nc(N5CCOC[C@H]5C)cc2c43)CC1` [Compound 113, (R)-6-(1-(methoxymethyl)cyclopropyl)-4-(3-methylmorpholinyl)-2-(1H-pyrazol-3-yl)-8,9-dihydro-1,3,6,9a-tetraazabenzo[cd]azulene-7(6H)-one], for which the values for the IC50 in experiment [1] (setting [3]) and in experiment [2] (setting [4]) were 10 to 100 nM and 100 to 1000 nM, respectively.

For `C[C@@H]1COCCN1c1cc2c3c(n1)c(-c1cc[nH]n1)nn3CCC(=O)N2C1(CO)CC1` [Compound 114, (R)-6-(1-(hydroxymethyl)cyclopropyl)-4-(3-methylmorpholinyl)-2-(1H-pyrazol-3-yl)-8,9-dihydro-1,3,6,9a-tetraazabenzo[cd]azulene-7(6H)-one], the IC50 in experiment [1] (setting [3]) is under 10 nM; in experiment [2] (setting [4]), 100 to 1000 nM.

Turning to `C[C@@H]1COCCN1c1cc2c3c(n1)c(-c1cc[nH]n1)nn3CCC(=O)N2CC12CC(F)(C1)C2` [Compound 115, (R)-6-((3-fluorobicyclo[1.1.1]pentan-1-yl)methyl)-4-(3-methylmorpholinyl)-2-(1H-pyrazol-3-yl)-8,9-dihydro-1,3,6,9a-tetraazabenzo[cd]azulene-7(6H)-one], the IC50 in experiment [1] (setting [3]) is under 10 nM; in experiment [2] (setting [4]), under 100 nM.

Regarding `C[C@@H]1COCCN1c1cc2c3c(n1)c(-c1cc[nH]n1)nn3CCC(=O)N2CC1(C#N)CC1` [Compound 116, (R)-1-((4-(3-methylmorpholinyl)-7-oxo-2-(1H-pyrazol-3-yl)-8,9-dihydro-1,3,6,9a-tetraazabenzo[cd]azulene-6(7H)-yl)methyl)cyclopropane-1-carbonitrile], the results for the IC50 in experiment [1] (setting [3]) and in experiment [2] (setting [4]) were 10 to 100 nM and 100 to 1000 nM, respectively.

On to `CC1Cn2nc(-c3cc[nH]n3)c3nc(N4CCOC[C@H]4C)cc(c32)N(C(C)C)C1=O` (stereo partly drawn) [Compound 119, 6-isopropyl-8-methyl-4-((R)-3-methylmorpholino)-2-(1H-pyrazol-3-yl)-8,9-dihydro-1,3,6,9a-tetraazabenzo[cd]azulene-7(6H)-one], for which the IC50 was in the range of 10 to 100 nM in experiment [1] (setting [5]) and 100 to 1000 nM in experiment [2] (setting [6]).

On to `CC(C)N1CCCn2nc(-c3cc[nH]n3)c3nc(N4CCOC[C@H]4C)cc1c32` [Compound 120, (R)-4-(6-isopropyl-2-(1H-pyrazol-3-yl)-6,7,8,9-tetrahydro-1,3,6,9a-tetraazabenzo[cd]azulen-4-yl)-3-methylmorpholine], for which the figures for the IC50 in experiment [1] (setting [5]) and in experiment [2] (setting [6]) were 10 to 100 nM and 100 to 1000 nM, respectively.

Turning to `C[C@@H]1COCCN1c1cc2c3c(n1)c(-c1cc[nH]n1)nn3CCCN2S(C)(=O)=O` [Compound 121, (R)-3-methyl-4-(6-(methylsulfonyl)-2-(1H-pyrazol-3-yl)-6,7,8,9-tetrahydro-1,3,6,9a-tetraazabenzo[cd]azulen-4-yl)morpholine], the IC50 in experiment [1] (setting [5]) was 10 to 100 nM; in experiment [2] (setting [6]), under 100 nM.

With `C[C@@H]1COCCN1c1cc2c3c(n1)c(-c1cc[nH]n1)nn3CCCN2C1CC1` [Compound 122, (R)-4-(6-cyclopropyl-2-(1H-pyrazol-3-yl)-6,7,8,9-tetrahydro-1,3,6,9a-tetraazabenzo[cd]azulen-4-yl)-3-methylmorpholine], the values for the IC50 in experiment [1] (setting [5]) and in experiment [2] (setting [6]) were 10 to 100 nM and 100 to 1000 nM, respectively.

As for `C[C@@H]1COCCN1c1cc2c3c(n1)c(-c1cc[nH]n1)nn3CCCN2CC(C)(C)O` [Compound 123, (R)-2-methyl-1-(4-(3-methylmorpholinyl)-2-(1H-pyrazol-3-yl)-8,9-dihydro-1,3,6,9a-tetraazabenzo[cd]azulene-6(7H)-yl)propan-2-ol], the IC50 in experiment [1] (setting [3]) was in the range of 10 to 100 nM; in experiment [2] (setting [4]) it was 100 to 1000 nM.

With `C[C@@H]1COCCN1c1cc2c3c(nn(-c4cc[nH]n4)c3n1)CCN(C1CC1)C2=O` [Compound 132, (R)-7-cyclopropyl-4-(3-methylmorpholino)-2-(1H-pyrazol-3-yl)-2,7,8,9-tetrahydro-6H-1,2,3,7-tetraazabenzo[cd]azulene-6-one], the IC50 in experiment [1] (setting [5]) is 10 to 100 nM; in experiment [2] (setting [6]), under 100 nM.

For the compound `C[C@@H]1COCCN1c1cc2c3c(nn(-c4cc[nH]n4)c3n1)CCN(C1COC1)C2C1CC1` (stereo partly drawn) [Compound 135, (3R)-4-(6-cyclopropyl-7-(oxetan-3-yl)-2-(1H-pyrazol-3-yl)-6,7,8,9-tetrahydro-2H-1,2,3,7-tetraazabenzo[cd]azulen-4-yl)-3-methylmorpholine], the results for the IC50 in experiment [1] (setting [5]) and in experiment [2] (setting [6]) were 10 to 100 nM and under 100 nM, respectively.

Turning to `CC(C)C1c2cc(N3CCOC[C@H]3C)nc3c2c(nn3-c2cc[nH]n2)CCN1C1COC1` (stereo partly drawn) [Compound 136, (3R)-4-(6-isopropyl-7-(oxetan-3-yl)-2-(1H-pyrazol-3-yl)-6,7,8,9-tetrahydro-2H-1,2,3,7-tetraazabenzo[cd]azulen-4-yl)-3-methylmorpholine], the values for the IC50 in experiment [1] (setting [5]) and in experiment [2] (setting [6]) were 10 to 100 nM and under 100 nM, respectively.
